According to patent US9765038B2, “Heteroaryl compounds and uses thereof” (Celgene CAR LLC, priority 2010, dated 2017):

Legend:
EGFR T790M/L858R [1] = molecular target: T1, EGFR T790M/L858R (Homo sapiens (Human), UniProt P00533, L858R/T790M); experiment: Omnia assay, EGFR (T790M/L858R) active enzyme; assay type: biochemical; conditions: for Ratio WT/mutant: biochemical IC50, WT EGFR vs EGFR (T790M/L858R); for IC50: [EGFR-T790M/L858R]=2.5 nM, [ATP]=20 uM, 30 min pre-incubation
EGFR-WT = EGFR-WT (Homo sapiens (Human), UniProt P00533); experiment: Omnia assay, EGFR (WT) active enzyme; assay type: biochemical; conditions: [EGFR-WT]=5 nM, [ATP]=15 uM, 30 min pre-incubation
[2] = molecular target: EGFR delE746-A750 mutation (HCC827 cells) (Homo sapiens (Human), UniProt P00533, DEL746-750); experiment: EGFR signaling immunoblot in HCC827 cells; assay type: cell-based; conditions: for Ratio WT/mutant: signaling EC50, WT EGFR (A431) vs HCC827
Procedure: (§1) A431 human epidermoid carcinoma, H1975 human NSCLC and HCC827 human NSCLC adenocarcinoma cells were obtained from the American Type Culture Center (Manassas, Va.). A431 cells were grown in DMEM (Invitrogen, Carlsbad, Calif.) supplemented with 10% FBS (HyClone, South Logan, Utah) and 1% Penicillin-Streptomycin (P/S, Lonza, Walkersville, Md.).
(§2) All primary antibodies were obtained from Cell Signaling (Danvers, Mass.) and used at 1:1000. Secondary antibodies were used at 1:10,000. Goat anti-mouse IgG IRDye 800CW antibody was obtained from LiCor Biosciences (Lincoln, Nebr.) and goat anti-rabbit IgG Alexa Fluor 680 was obtained from Invitrogen.
(§3) Cells were grown in 12-well plates (Corning, Coring, N.Y.) to 90% confluence and then incubated in low-serum (0.1% FBS) media for 16-18 hr. […] A431 cells were then stimulated with 50 ng/ml EGF (Peprotech, Rocky Hill, N.J.) for 15 min. After treatment, cell monolayers were washed with cold PBS (Invitrogen) and immediately lysed by scrapping into 60 uL cold Cell Extraction Buffer (Invitrogen) supplemented with Complete Protease inhibitors (Roche, Indianapolis, Ind.) and PhosphoSTOP (Roche) phosphatase inhibitors.
(§4) Phospho-protein signals were quantitated using Odyssey Infrared Imaging (Li-Cor Biosciences).
(§5) Blots were normalized as indicated above. […] Normalized data was fitted using a sigmoidal curve analysis program (Graph Pad Prism version 5) with variable Hill slope to determine the EC50 values.

[3] = molecular target: EGFR double mutation L858R/T790M (H1975 cells) (Homo sapiens (Human), UniProt P00533, L858R/T790M); experiment: EGFR signaling immunoblot (phospho-EGFR, phospho-S6) in H1975 cells; assay type: cell-based; conditions: for Ratio WT/mutant: signaling EC50, WT EGFR (A431) vs H1975
Procedure: as §1, §2, §3, §4, §5

pEGFR in H1975 cells = pEGFR in H1975 cells (Homo sapiens (Human), UniProt P00533, L858R/T790M); conditions: 500 nM for 1 hr, washout up to 24 hr, FIG. 3
EGFR T790M/L858R [4] = molecular target: T1, EGFR T790M/L858R; conditions: for covalent modification of the protein: intact protein MS, I-1 within 30 minutes
WT EGFR (A431 cells) = WT EGFR (A431 cells) (Homo sapiens (Human), UniProt P00533); experiment: EGFR signaling immunoblot (phospho-EGFR, phospho-S6) in A431 cells; assay type: cell-based; conditions: FIG. 2
Procedure: as §1, §2, §3, §4
Blots were normalized as indicated above. […]

[5] = system: H1975 cells (EGFR L858R/T790M); experiment: Cell proliferation (CellTiter Glo), H1975 cells; assay type: cell-based, human; conditions: GI50, WT EGFR (A431) vs H1975
Procedure: as §1
(§6) Growth inhibition (GI50) values were determined by Graph Pad Prism.

[6] = system: HCC827 cells (EGFR delE746-A750); experiment: Cell proliferation (CellTiter Glo), HCC827 cells; assay type: cell-based, human; conditions: GI50, WT EGFR (A431) vs HCC827
Procedure: as §1, §6

[7] = 10-fold excess of compound, MALDI, FIG. 4

Row | SMILES | Ratio WT/mutant (EGFR T790M/L858R [1]) | Ratio WT/mutant [3] | further results
1 | C=CC(=O)Nc1cccc(Nc2nc(Nc3cccc(OC)c3OC)ncc2Br)c1 [Compound I-14, N-(3-(5-bromo-2-(2,3-dimethoxyphenylamino)pyrimidin-4-ylamino)phenyl)acrylamide] | >50 |  | IC50 (EGFR-WT): 0.3 to 1 µM; IC50 (EGFR T790M/L858R [1]): 0.001 to 0.01 µM
2 | C=CC(=O)Nc1cccc(Nc2nc(Nc3ccccc3OC)ncc2C(F)(F)F)c1 [Compound I-1, N-(3-(2-(2-methoxyphenylamino)-5-(trifluoromethyl)pyrimidin-4-ylamino)phenyl)acrylamide] | >50 | >50 | Ratio WT/mutant [2]: >50; duration of action after washout (pEGFR) (pEGFR in H1975 cells): prolonged duration of action; mass shift (EGFR T790M/L858R [4]; [7]): 488 Da; mass shift relative to compound mass (EGFR T790M/L858R [4]; [7]): 113%; covalent modification of the protein (EGFR T790M/L858R [4]): completely modifies
3 | C=CC(=O)Nc1cccc(Nc2nc(Nc3ccc(OC)c(OC)c3OC)ncc2Br)c1 [Compound I-5, N-(3-(5-bromo-2-(2,3,4-trimethoxyphenylamino)pyrimidin-4-ylamino)phenyl)acrylamide] | >45 | >50 | 
4 | C=CC(=O)Nc1cccc(Oc2nc(Nc3ccc(OC)c(OC)c3OC)ncc2Cl)c1 [Compound I-7, N-(3-(5-chloro-2-(2,3,4-trimethoxyphenylamino)pyrimidin-4-yloxy)phenyl)acrylamide] | >25 | >50 | WT-EGFR sparing (WT EGFR (A431 cells)): completely WT-EGFR sparing; inhibition of pEGFR and downstream S6 ribosomal protein ([3]; H1975 cells, FIG. 1 and FIG. 2): inhibiting pEGFR and its downstream target S6 Ribosomal protein; Ratio WT/mutant [5]: >10; Ratio WT/mutant [6]: >15; covalent modification of the protein (EGFR T790M/L858R [4]): covalently modify the protein
5 | C=CC(=O)Nc1cccc(Oc2nc(Nc3ccccc3OC)ncc2C(F)(F)F)c1 [Compound I-2, N-(3-(2-(2-methoxyphenylamino)-5-(trifluoromethyl)pyrimidin-4-yloxy)phenyl)acrylamide] |  |  | duration of action after washout (pEGFR) (pEGFR in H1975 cells): prolonged duration of action; covalent modification of the protein (EGFR T790M/L858R [4]): covalently modify the protein
6 | C=CC(=O)Nc1cccc(Oc2nc(Nc3cccc(OC)c3OC)ncc2Br)c1 [Compound I-6, N-(3-(5-bromo-2-(2,3-dimethoxyphenylamino)pyrimidin-4-yloxy)phenyl)acrylamide] | >45 |  | 

The next lines start with results.

Row | Ratio WT/mutant (EGFR T790M/L858R [1]) | Ratio WT/mutant [3] | SMILES | further results
7 | >30 |  | C=CC(=O)Nc1cccc(Nc2nc(Nc3ccccc3OC)ncc2Cl)c1 [Compound I-18, N-(3-(5-chloro-2-(2-methoxyphenylamino)pyrimidin-4-ylamino)phenyl)acrylamide] | 
8 | >35 |  | C=CC(=O)Nc1cccc(Oc2nc(Nc3cccc(OC)c3OC)ncc2Cl)c1 [Compound I-17, N-(3-(5-chloro-2-(2,3-dimethoxyphenylamino)pyrimidin-4-yloxy)phenyl)acrylamide] | IC50 (EGFR-WT): 0.3 to 1 µM; IC50 (EGFR T790M/L858R [1]): 0.01 to 0.1 µM; EC50 ([2]; HCC827 cells, signaling, 1 hr): 0.5 to 1 µM
9 | >50 | >50 | C=CC(=O)Nc1cccc(Oc2nc(Nc3ccc(OC)c(OC)c3OC)ncc2C(F)(F)F)c1 [Compound I-10, N-(3-(5-(trifluoromethyl)-2-(2,3,4-trimethoxyphenylamino)pyrimidin-4-yloxy)phenyl)acrylamide] | 
10 | >50 | >5 | C=CC(=O)Nc1cccc(Nc2nc(Nc3ccc(OC)cc3OC)ncc2Cl)c1 [Compound I-21, N-(3-(5-chloro-2-(2,4-dimethoxyphenylamino)pyrimidin-4-ylamino)phenyl)acrylamide] | 
11 | >25 | >50 | C=CC(=O)Nc1cccc(Nc2nc(Nc3ccc(OC)c(OC)c3OC)ncc2C(F)(F)F)c1 [Compound I-11, N-(3-(5-(trifluoromethyl)-2-(2,3,4-trimethoxyphenylamino)pyrimidin-4-ylamino)phenyl)acrylamide] | Ratio WT/mutant [2]: >5
12 | >45 |  | C=CC(=O)Nc1cccc(Nc2nc(Nc3ccc(OC)cc3OC)ncc2Br)c1 [Compound I-20, N-(3-(5-bromo-2-(2,4-dimethoxyphenylamino)pyrimidin-4-ylamino)phenyl)acrylamide] | 
13 | >10 |  | C=CC(=O)Nc1cccc(Oc2nc(Nc3ccccc3OC)ncc2F)c1 [Compound I-19, N-(3-(5-fluoro-2-(2-methoxyphenylamino)pyrimidin-4-yloxy)phenyl)acrylamide] | 
